Converted amounts (≈) assume the structure as drawn. The source made the active and inactive calls. The rule behind the calls is not given here.

In data set [1] the test system is Mus musculus. As to the kind of experiment: Anticonvulsant activity in Kunming mouse assessed as reduction in MES-induced seizure at 30 to 300 mg/kg, ip measured after 30 mins. In kind it is functional, organism-based.
A further data set has as its system Cortical neurone. Description: Antiepileptic actvity in C57BL/6 mouse Primary cortical neuron assessed as reduction in 4-AP-induced excitability measured for 8 mins by Fluo-8/AM staining based FLIPR assay. In kind it is functional, cell-based. The note with it: C57BL/6, Cortical neurone.
For data set [2], the target named is T1, GABA-A receptor; alpha-1/beta-2/gamma-2 (Homo sapiens, UniProt P14867+P18507+P47870).
T1 sequence (P14867 whole entry): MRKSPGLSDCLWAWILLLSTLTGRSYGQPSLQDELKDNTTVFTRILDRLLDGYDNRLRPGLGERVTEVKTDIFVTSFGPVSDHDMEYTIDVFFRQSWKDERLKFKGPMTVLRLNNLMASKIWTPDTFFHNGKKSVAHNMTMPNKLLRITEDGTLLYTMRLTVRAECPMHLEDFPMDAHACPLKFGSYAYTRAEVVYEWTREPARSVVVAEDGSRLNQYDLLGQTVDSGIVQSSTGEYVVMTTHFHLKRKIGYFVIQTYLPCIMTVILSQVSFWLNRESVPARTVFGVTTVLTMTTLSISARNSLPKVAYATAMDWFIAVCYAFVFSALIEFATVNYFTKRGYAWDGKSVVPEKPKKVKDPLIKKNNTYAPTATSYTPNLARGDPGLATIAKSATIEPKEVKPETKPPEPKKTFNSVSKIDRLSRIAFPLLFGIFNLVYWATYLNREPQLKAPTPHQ
T1 sequence (P47870 whole entry): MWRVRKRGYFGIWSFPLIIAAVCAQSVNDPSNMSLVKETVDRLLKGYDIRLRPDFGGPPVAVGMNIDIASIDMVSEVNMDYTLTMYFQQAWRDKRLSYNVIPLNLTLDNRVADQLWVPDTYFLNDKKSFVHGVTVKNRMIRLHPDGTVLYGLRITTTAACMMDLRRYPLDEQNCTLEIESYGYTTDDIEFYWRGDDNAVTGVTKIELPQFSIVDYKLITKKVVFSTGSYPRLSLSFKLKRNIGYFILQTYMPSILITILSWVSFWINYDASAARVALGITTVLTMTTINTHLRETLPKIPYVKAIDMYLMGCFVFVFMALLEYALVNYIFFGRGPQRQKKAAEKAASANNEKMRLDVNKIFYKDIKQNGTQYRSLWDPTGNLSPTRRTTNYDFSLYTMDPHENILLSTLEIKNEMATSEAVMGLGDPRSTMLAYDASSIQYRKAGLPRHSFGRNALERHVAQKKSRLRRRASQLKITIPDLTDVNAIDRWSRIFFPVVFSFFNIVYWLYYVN
T1 sequence (P18507 whole entry): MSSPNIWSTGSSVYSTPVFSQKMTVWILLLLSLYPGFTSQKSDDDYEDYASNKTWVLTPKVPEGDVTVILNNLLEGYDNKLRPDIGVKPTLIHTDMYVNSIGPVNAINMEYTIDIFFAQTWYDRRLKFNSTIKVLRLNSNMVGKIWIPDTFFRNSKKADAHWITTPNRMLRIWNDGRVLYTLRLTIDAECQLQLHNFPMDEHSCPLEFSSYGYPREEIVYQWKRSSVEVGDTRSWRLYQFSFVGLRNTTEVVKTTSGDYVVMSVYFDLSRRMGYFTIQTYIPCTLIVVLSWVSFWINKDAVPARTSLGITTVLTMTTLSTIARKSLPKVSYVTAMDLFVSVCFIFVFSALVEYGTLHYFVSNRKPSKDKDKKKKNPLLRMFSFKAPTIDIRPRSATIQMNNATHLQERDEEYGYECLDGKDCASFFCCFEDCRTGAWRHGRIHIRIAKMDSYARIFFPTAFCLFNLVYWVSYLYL
Description: Positive allosteric modulation of recombinant human GABA receptor alpha1beta2gamma2 expressed in CHO cells at 30 uM in presence of GABA and measured for 120 secs by FMP dye based FLIPR assay (reference value: 0.25 +/- 0.03 uM). Format: cell-based.

Data set [3] is described as follows: Protective index, ratio of TD50 for neurotoxicity in ip dosed Kunming mouse to ED50 for anticonvulsant activity in ip dosed Kunming mouse. In kind it is toxicity, organism-based. The note with it: in vivo, read-out: Ratio TD50/ED50.
For data set [4], the system named is Mus musculus. Description: Anticonvulsant activity in Kunming mouse assessed as reduction in ScPTZ-induced seizure at 30 mg/kg, ip administered before 30 mins of ScPTZ stimulation. In kind it is functional, organism-based.
Data set [5] has as its system Mus musculus. Description: Anticonvulsant activity in ip dosed Kunming mouse assessed as reduction in ScPTZ-induced seizure administered before 30 mins of ScPTZ stimulation. In kind it is functional. The note with it: 0.5 h.
Data set [6] deals with Mus musculus. As to the kind of experiment: Anticonvulsant activity in Kunming mouse assessed as reduction in ScPTZ-induced seizure at 100 mg/kg, ip administered before 30 mins of ScPTZ stimulation. In kind it is functional, organism-based.
A short description of data set [7]: Neurotoxicity in ip dosed Kunming mouse assessed as reduction in equilibrium measured after 30 mins by rotarod test. In kind it is toxicity, organism-based. The note with it: in vivo.
Data set [8] is filed under the species Mus musculus. Description: Inhibition of sodium channel in C57BL/6 mouse Primary cortical neurons at 100 uM by manual patch clamp electrophysiology method. (Patch clamp records ionic current or voltage across a cell membrane.)
In data set [9] the target is T1, GABA-A receptor; alpha-1/beta-2/gamma-2. Description: (§1) Activation of recombinant human GABA receptor alpha1beta2gamma2 expressed in CHO cells in presence of GABA and measured for 120 secs by FMP dye based FLIPR assay. In kind it is cell-based.
In data set [10] the target is T2, GABA-A receptor; alpha-1/beta-2/gamma-2 (Homo sapiens) (UniProt P14867+P47870+P18507). Described as §1. Format: cell-based.
Data set [11] has as its target T2, GABA-A receptor; alpha-1/beta-2/gamma-2 (Homo sapiens). As to the kind of experiment: Activation of recombinant human GABA receptor alpha1beta2gamma2 expressed in CHO cells and measured for 120 secs by FMP dye based FLIPR assay. In kind it is cell-based.
The species entered for data set [12] is Mus musculus. As to the kind of experiment: Inhibition of sodium channel in C57BL/6 mouse primary cortical neurons at 10 uM by manual patch clamp electrophysiology method.
Data set [13] has as its system Mus musculus. As to the kind of experiment: Anticonvulsant activity in Kunming mouse assessed as reduction in ScPTZ-induced seizure at 300 mg/kg, ip administered before 30 mins of ScPTZ stimulation. In kind it is functional, organism-based.
Data set [14] deals with Mus musculus. As to the kind of experiment: Anticonvulsant activity in ip dosed CF-1 mouse assessed as reduction in ScPTZ-induced seizure administered before 30 mins of ScPTZ stimulation. In kind it is functional. The note with it: CF-1, ip, 0.5 h.
Data set [15] in a line: Solubility of compound in DMSO. In kind it is physicochemical.
Data set [16] can be described thus: Solubility of compound in water. Format: physicochemical.

The term IC50 denotes the point on the concentration scale where inhibition reaches its midpoint. Usually EC50 stands for the concentration needed to bring the measured effect to its halfway point. As a reminder, the ED50 is the dose at which the effect has come halfway, by size or by number of responders. Broadly, the TD50 is the dose at which the toxic effect under study appears in half of the subjects. As for `O=c1cc(Cc2ccc(Cl)cc2)[nH]c2nc(-c3ccccc3)nn12`, the result (in the data set with Mus musculus [1]; in data set [11]) was inactive. In the data set with Cortical neurone, the IC50 worked out at 452 nM. Besides, the EC50 worked out at 200 nM in [2] and 3080 nM in data set [9]. Moreover, the selectivity ratio in data set [3] was 17.2. For the same molecule, the result in the data set with Mus musculus [4], in the data set with Mus musculus [6] and with Mus musculus [13] was Active. Besides, in the data set on Mus musculus [5], the ED50 turned out to be 31.8 mg/kg. The TD50 at 0.5 h in data set [7] worked out at 548 mg/kg. The inhibition result in the data set filed under Mus musculus [8] and in the data set listed under Mus musculus [12] was “inactive” throughout. In addition, in data set [10], the Activity entry is “Dose-dependent effect”.

With `CCCC(CCC)C(=O)O` [VALPROIC ACID], the ED50 with Mus musculus [14] turned out to be 149 mg/kg.

For orientation: solubility means the concentration that dissolves in the medium under given conditions. A lower solubility goes with little dissolved substance. For `O=c1cc(-c2ccc(Cl)cc2)[nH]c2nc(-c3ccccc3)nn12`, the solubility in [15] stood at 3000 µg/mL (≈ 9.29 mM); in data set [16], 14.3 µg/mL (≈ 0.0443 mM). For the same molecule, in the data set on Cortical neurone, the IC50 was 2350 nM.

On to `Cc1ccc(Cc2nc3[nH]c(-c4ccccc4)cc(=O)n3n2)cc1`, for which the result in the data set on Mus musculus [1] was inactive. In the data set with Cortical neurone, the IC50 came out at 1150 nM. Besides, the selectivity ratio in data set [3] was found to be 4.26. The outcome in the data set on Mus musculus [4], in the data set on Mus musculus [6] and with Mus musculus [13] was Active. Moreover, the ED50 in the data set with Mus musculus [5] worked out at 65.8 mg/kg. Further, the TD50 at 0.5 h in data set [7] worked out at 281 mg/kg.

As for `O=c1cc(-c2ccccc2)[nH]c2nc(Cc3ccccc3)nn12`, the outcome in the data set on Mus musculus [1] was inactive. In addition, the IC50 with Cortical neurone is 1310 nM. The outcome in the data set with Mus musculus [4], in the data set with Mus musculus [6] and with Mus musculus [13] was Active.

With `O=C1NC(=O)C(c2ccccc2)(c2ccccc2)N1` [PHENYTOIN], the ED50 with Mus musculus [14] was greater than 300 mg/kg.

As to `Cc1ccc(Cc2nc3[nH]c(-c4ccc(Cl)cc4)cc(=O)n3n2)cc1`, the result with Mus musculus [1], with Mus musculus [4], in the data set with Mus musculus [6] and in the data set on Mus musculus [13] was inactive. Further, the IC50 in the data set with Cortical neurone worked out at 5440 nM.

As to `CCCCCCc1nc2[nH]c(-c3ccc(Cl)cc3)cc(=O)n2n1`, in the data set with Mus musculus [1], the outcome was inactive. The IC50 with Cortical neurone worked out at 8720 nM. Further, the outcome in the data set on Mus musculus [4], in the data set with Mus musculus [6] and in the data set on Mus musculus [13] was Active.

Turning to `O=c1cc(Cc2ccccc2)[nH]c2nc(Cc3ccc(Cl)cc3)nn12`, the outcome in the data set with Mus musculus [1], in the data set on Mus musculus [4] and in the data set on Mus musculus [13] was inactive. The IC50 in the data set on Cortical neurone was 4280 nM. Further, in the data set on Mus musculus [6], the result was Active.

On to `O=c1cc(-c2ccccc2)[nH]c2nc(Cc3ccc(Cl)cc3)nn12`, for which, in the data set on Mus musculus [1], the result was inactive. In the data set on Cortical neurone, the IC50 came out at 1830 nM. For the same molecule, the selectivity ratio in data set [3] was 3.45. The outcome in the data set with Mus musculus [4], with Mus musculus [6] and in the data set with Mus musculus [13] was Active. The ED50 in the data set with Mus musculus [5] was determined as 61.1 mg/kg. In [7], the TD50 at 0.5 h came out at 211 mg/kg.

Turning to `Cc1ccc(Cc2nc3[nH]c(Cc4ccccc4)cc(=O)n3n2)cc1`, the outcome with Mus musculus [1] was inactive. Besides, the IC50 in the data set on Cortical neurone was 2470 nM. Besides, the result in the data set on Mus musculus [4], with Mus musculus [6] and with Mus musculus [13] was Active.

For the molecule `O=c1cc(-c2ccccc2)[nH]c2nc(Cc3ccc(F)cc3)nn12`, the outcome in the data set on Mus musculus [1] was inactive. Also, in the data set on Cortical neurone, the IC50 is 2520 nM. Moreover, the selectivity ratio in data set [3] came to 3.67. Moreover, the result with Mus musculus [4], in the data set with Mus musculus [6] and with Mus musculus [13] was Active. Also, the ED50 in the data set on Mus musculus [5] is 71.6 mg/kg. Moreover, the TD50 at 0.5 h in [7] worked out at 261 mg/kg.

`CCC1(c2ccccc2)C(=O)NC(=O)NC1=O` [PHENOBARBITAL]: the ED50 with Mus musculus [14] was determined as 13.2 mg/kg.

As to `Cc1ccc(-c2nc3[nH]c(-c4ccccc4)cc(=O)n3n2)cc1`, the solubility was 3000 µg/mL (≈ 9.92 mM) in [15] and 14.3 µg/mL (≈ 0.0473 mM) in data set [16]. Besides, the IC50 in the data set on Cortical neurone is 3210 nM.

Regarding `O=c1cc(Cc2ccc(Cl)cc2)[nH]c2nc(Cc3ccc(F)cc3)nn12`, the result in the data set on Mus musculus [1] and in the data set on Mus musculus [4] was inactive. For the same molecule, the IC50 with Cortical neurone is 3650 nM. Besides, the result in the data set on Mus musculus [6] and in the data set with Mus musculus [13] was Active.

With `Cc1ccc(-c2nc3[nH]c(Cc4ccccc4)cc(=O)n3n2)cc1`, the result (with Mus musculus [1]; in data set [11]) was inactive. The IC50 in the data set with Cortical neurone turned out to be 334 nM. Further, the EC50 in data set [2] came to 240 nM; in data set [9], 12000 nM. The selectivity ratio in [3] was 9.09. Further, the outcome in the data set on Mus musculus [4], with Mus musculus [6] and in the data set with Mus musculus [13] was Active. The ED50 in the data set with Mus musculus [5] worked out at 41 mg/kg. Besides, the TD50 at 0.5 h in [7] was 372 mg/kg. In addition, the inhibition result in the data set listed under Mus musculus [8] was “Active”. Further, the Activity result in [10] was “Dose-dependent effect”. In the data set filed under Mus musculus [12], the inhibition result was “inactive”.

Turning to `NC(=O)N1c2ccccc2C=Cc2ccccc21` [CARBAMAZEPINE], the ED50 in the data set with Mus musculus [14] is greater than 100 mg/kg.

Source of the values: ChEMBL document CHEMBL4312021, “Discovery of [1,2,4]-triazolo [1,5-a]pyrimidine-7(4H)-one derivatives as positive modulators of GABAA1 receptor with potent anticonvulsant activity and low toxicity” (Eur J Med Chem, 2020).
